# Patent publication US9598433B2, “Hepatitis C virus inhibitors” (BRISTOL-MYERS SQUIBB COMPANY, priority 2012, dated 2017)
# Assays:
# [1] = test system: HCV genotype 1a (H77 strain) replicon in HUH-7 cells; assay: HCV replicon luciferase reporter assay, genotype 1a; format: cell-based; details: Hepatitis C virus, 72 h, genotype 1a replicon, 3 days incubation, read-out: LE_1a (EC50, range)
# Procedure, shortened: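 Stable HUH-7 line carrying luciferase-reporter genotype 1a (H77) replicon with adaptive NS3 P1496L and NS5A S2204I mutations; 3.0×10^3 cells/well in 4% FCS, 0.5% DMSO, twenty-point 3-fold titration, 3 days at 37 °C. Renilla luminescence with 7.5 μM EnduRen; EC50 by four-parameter logistic fit; CC50 by multiplexed Cell Titer-Blue.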
# [2] = test system: HCV genotype 1b (Con1) replicon in HUH-7 cells; assay: HCV replicon luciferase reporter assay, genotype 1b; format: cell-based; details: Hepatitis C virus, 72 h, genotype 1b replicon, 3 days incubation, read-out: LE_1b (EC50, range)
# Procedure, shortened: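 Replication was read as Renilla luciferase signal, using 7.5 μM EnduRen substrate with a 2-h incubation at 37 °C. The signal came from a HUH-7 line constitutively expressing a luciferase-tagged 1b (Con1) replicon carrying S1179I.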
compound,measurement,setting,value
"COc1cnc(O[C@@H]2C[C@H]3C(=O)N[C@]4(C(=O)NS(=O)(=O)C5(CF)CC5)C[C@H]4/C=C\CC[C@@H](C)O[C@@H](C)[C@H](NC(=O)OC(C)(C)C(F)F)C(=O)N3C2)c2ccccc12 [Compound 2016, 1,1-difluoro-2-methylpropan-2-yl ((2R,6S,7S,9R,13aS,14aR,16aS,Z)-14a-(((1-(fluoromethyl)cyclopropyl)sulfonyl)carbamoyl)-2-((4-methoxyisoquinolin-1-yl)oxy)-7,9-dimethyl-5,16-dioxo-2,3,5,6,7,9,10,11,13a,14,14a,15,16,16a-tetradecahydro-1H-cyclopropa[i]pyrrolo[1,2-e][1,5,8]oxadiazacyclopentadecin-6-yl)carbamate]",EC50,[1],1.01 to 5 nM
same,EC50,[2],0.51 to 1 nM
"CC[C@@H]1O[C@H](C)CC/C=C\[C@@H]2C[C@@]2(C(=O)NS(=O)(=O)C2(C)CC2)NC(=O)[C@@H]2C[C@@H](Oc3nccc4c5c(ccc34)OCCO5)CN2C(=O)[C@H]1NC(=O)OC(C)(C)C(F)(F)F [Compound 2610, 1,1,1-trifluoro-2-methylpropan-2-yl ((2R,6S,7S,9R,13aS,14aR,16aS,Z)-2-((2,3-dihydro-[1,4]dioxino[2,3-f]isoquinolin-7-yl)oxy)-7-ethyl-9-methyl-14a-(((1-methylcyclopropyl)sulfonyl)carbamoyl)-5,16-dioxo-2,3,5,6,7,9,10,11,13a,14,14a,15,16,16a-tetradecahydro-1H-cyclopropa[i]pyrrolo[1,2-e][1,5,8]oxadiazacyclopentadecin-6-yl)carbamate]",EC50,[1],1.01 to 5 nM
same,EC50,[2],0.51 to 1 nM
CC[C@@H]1OCCC/C=C\[C@@H]2C[C@@]2(C(=O)NS(=O)(=O)C2(C)CC2)NC(=O)[C@@H]2C[C@@H](Oc3nccc4cc(OC)ccc34)CN2C(=O)[C@H]1NC(=O)OC(C)(C)C(F)(F)F [Compound 1005],EC50,[1],1.01 to 5 nM
same,EC50,[2],0.51 to 1 nM
"CC[C@@H]1O[C@H](C)CC/C=C\[C@@H]2C[C@@]2(C(=O)NS(=O)(=O)C2(C)CC2)NC(=O)[C@@H]2C[C@@H](Oc3ncc(OC)c4ccccc34)CN2C(=O)[C@H]1NC(=O)OC(C)(C)C(F)F [Compound 2618, 1,1-difluoro-2-methylpropan-2-yl ((2R,6S,7S,9R,13aS,14aR,16aS,Z)-7-ethyl-2-((4-methoxyisoquinolin-1-yl)oxy)-9-methyl-14a-(((1-methylcyclopropyl)sulfonyl)carbamoyl)-5,16-dioxo-2,3,5,6,7,9,10,11,13a,14,14a,15,16,16a-tetradecahydro-1H-cyclopropa[i]pyrrolo[1,2-e][1,5,8]oxadiazacyclopentadecin-6-yl)carbamate]",EC50,[1],0.1 to 0.5 nM
same,EC50,[2],0.1 to 0.5 nM
CC[C@@H]1O[C@H](C)CC/C=C\[C@@H]2C[C@@]2(C(=O)NS(=O)(=O)C2(C)CC2)NC(=O)[C@@H]2C[C@@H](Oc3ncc(OC)c4ccc(F)cc34)CN2C(=O)[C@H]1NC(=O)OC(C)(C)C(F)(F)F [Compound 2606],EC50,[1],0.51 to 1 nM
same,EC50,[2],0.1 to 0.5 nM
"CC[C@@H]1O[C@H](C)CC/C=C\[C@@H]2C[C@@]2(C(=O)NS(=O)(=O)C2(C)CC2)NC(=O)[C@@H]2C[C@@H](Oc3ncc(OC)c4ccc(F)cc34)CN2C(=O)[C@H]1NC(=O)OC(C)(C)C(F)F [Compound 2617, 1,1-difluoro-2-methylpropan-2-yl ((2R,6S,7S,9R,13aS,14aR,16aS,Z)-7-ethyl-2-((7-fluoro-4-methoxyisoquinolin-1-yl)oxy)-9-methyl-14a-(((1-methylcyclopropyl)sulfonyl)carbamoyl)-5,16-dioxo-2,3,5,6,7,9,10,11,13a,14,14a,15,16,16a-tetradecahydro-1H-cyclopropa[i]pyrrolo[1,2-e][1,5,8]oxadiazacyclopentadecin-6-yl)carbamate]",EC50,[1],0.1 to 0.5 nM
same,EC50,[2],0.51 to 1 nM
"COc1ccc2c(O[C@@H]3C[C@H]4C(=O)N[C@]5(C(=O)NS(=O)(=O)C6(C)CC6)C[C@H]5/C=C\CC[C@@H](C)O[C@@H](C)[C@H](NC(=O)OC(C)(C)C(F)(F)F)C(=O)N4C3)nc(-c3ccc(OC(C)C)cn3)cc2c1 [Compound 2011, 1,1,1-trifluoro-2-methylpropan-2-yl ((2R,6S,7S,9R,13a5,14aR,16aS,Z)-2-((3-(5-isopropoxypyridin-2-yl)-6-methoxyisoquinolin-1-yl)oxy)-7,9-dimethyl-14a-(((1-methylcyclopropyl)sulfonyl)carbamoyl)-5,16-dioxo-2,3,5,6,7,9,10,11,13a,14,14a,15,16,16a-tetradecahydro-1H-cyclopropa[i]pyrrolo[1,2-e][1,5,8]oxadiazacyclopentadecin-6-yl)carbamate]",EC50,[1],0.51 to 1 nM
same,EC50,[2],0.1 to 0.5 nM
"CC[C@@H]1O[C@H](C)CC/C=C\[C@@H]2C[C@@]2(C(=O)NS(=O)(=O)C2(C)CC2)NC(=O)[C@@H]2C[C@@H](Oc3cc(OC)nc4cc(OC)ccc34)CN2C(=O)[C@H]1NC(=O)OC(C)(C)C(C)(F)F [Compound 1020, 3,3-difluoro-2-methylbutan-2-yl ((2R,6S,7S,9R,13aS,14aR,16aS,Z)-2-((2,7-dimethoxyquinolin-4-yl)oxy)-7-ethyl-9-methyl-14a-(((1-methylcyclopropyl)sulfonyl)carbamoyl)-5,16-dioxo-2,3,5,6,7,9,10,11,13a,14,14a,15,16,16a-tetradecahydro-1H-cyclopropa[i]pyrrolo[1,2-e][1,5,8]oxadiazacyclopentadecin-6-yl)carbamate]",EC50,[1],1.01 to 5 nM
same,EC50,[2],0.51 to 1 nM
"CC[C@@H]1O[C@H](C)CC/C=C\[C@@H]2C[C@@]2(C(=O)NS(=O)(=O)C2(CF)CC2)NC(=O)[C@@H]2C[C@@H](Oc3nc(OC)cc4cc(OC)ccc34)CN2C(=O)[C@H]1NC(=O)OC(C)(C)C(F)(F)F [Compound 1013, 1,1,1-trifluoro-2-methylpropan-2-yl ((2R,6S,7S,9R,13aS,14aR,16aS,Z)-2-((3,6-dimethoxyisoquinolin-1-yl)oxy)-7-ethyl-14a-(((1-(fluoromethyl)cyclopropyl)sulfonyl)carbamoyl)-9-methyl-5,16-dioxo-2,3,5,6,7,9,10,11,13a,14,14a,15,16,16a-tetradecahydro-1H-cyclopropa[i]pyrrolo[1,2-e][1,5,8]oxadiazacyclopentadecin-6-yl)carbamate]",EC50,[1],1.01 to 5 nM
same,EC50,[2],1.01 to 5 nM
"CC[C@@H]1O[C@H](C)CC/C=C\[C@@H]2C[C@@]2(C(=O)NS(=O)(=O)C2(C)CC2)NC(=O)[C@@H]2C[C@@H](Oc3nccc4c5c(ccc34)OCCO5)CN2C(=O)[C@H]1NC(=O)OC(C)(C)C [Compound 2611, tert-butyl ((2R,6S,7S,9R,13aS,14aR,16aS,Z)-2-((2,3-dihydro-[1,4]dioxino[2,3-f]isoquinolin-7-yl)oxy)-7-ethyl-9-methyl-14a-(((1-methylcyclopropyl)sulfonyl)carbamoyl)-5,16-dioxo-2,3,5,6,7,9,10,11,13a,14,14a,15,16,16a-tetradecahydro-1H-cyclopropa[i]pyrrolo[1,2-e][1,5,8]oxadiazacyclopentadecin-6-yl)carbamate]",EC50,[1],1.01 to 5 nM
same,EC50,[2],0.51 to 1 nM
"CC[C@@H]1O[C@H](C)CC/C=C\[C@@H]2C[C@@]2(C(=O)NS(=O)(=O)C2(C)CC2)NC(=O)[C@@H]2C[C@@H](Oc3cc(OC)nc4cc(OC)c(F)cc34)CN2C(=O)[C@H]1NC(=O)OC(C)(C)C(F)(F)F [Compound 1018, 1,1,1-trifluoro-2-methylpropan-2-yl ((2R,6S,7S,9R,13aS,14aR,16aS,Z)-7-ethyl-2-((6-fluoro-2,7-dimethoxyquinolin-4-yl)oxy)-9-methyl-14a-(((1-methylcyclopropyl)sulfonyl)carbamoyl)-5,16-dioxo-2,3,5,6,7,9,10,11,13a,14,14a,15,16,16a-tetradecahydro-1H-cyclopropa[i]pyrrolo[1,2-e][1,5,8]oxadiazacyclopentadecin-6-yl)carbamate]",EC50,[1],1.01 to 5 nM
same,EC50,[2],0.51 to 1 nM
"COc1cnc(O[C@@H]2C[C@H]3C(=O)N[C@]4(C(=O)NS(=O)(=O)C5(C)CC5)C[C@H]4/C=C\CO[C@@H](C)C[C@@H](C)[C@H](NC(=O)OC(C)(C)C)C(=O)N3C2)c2ccccc12 [Compound 2601, tert-butyl ((2R,6S,7R,9S,13aS,14aR,16aS,Z)-2-((4-methoxyisoquinolin-1-yl)oxy)-7,9-dimethyl-14a-(((1-methylcyclopropyl)sulfonyl)carbamoyl)-5,16-dioxo-2,3,5,6,7,8,9,11,13a,14,14a,15,16,16a-tetradecahydro-1H-cyclopropa[e]pyrrolo[2,1-i][1,7,10]oxadiazacyclopentadecin-6-yl)carbamate]",EC50,[1],1.01 to 5 nM
same,EC50,[2],1.01 to 5 nM
CC[C@@H]1OCCC/C=C\[C@@H]2C[C@@]2(C(=O)NS(=O)(=O)C2(C)CC2)NC(=O)[C@@H]2C[C@@H](Oc3ncc(OC)c4ccccc34)CN2C(=O)[C@H]1NC(=O)OC(C)(C)C(F)(F)F [Compound 1011],EC50,[1],0.51 to 1 nM
same,EC50,[2],0.51 to 1 nM
"CC[C@@H]1O[C@H](C)CC/C=C\[C@@H]2C[C@@]2(C(=O)NS(=O)(=O)C2(C)CC2)NC(=O)[C@@H]2C[C@@H](Oc3nc(-c4ccc(OC(C)C)cn4)cc4cc(OC)ccc34)CN2C(=O)[C@H]1NC(=O)OC(C)(C)C(F)(F)F [Compound 2612, 1,1,1-trifluoro-2-methylpropan-2-yl ((2R,6S,7S,9R,13aS,14aR,16aS,Z)-7-ethyl-2-((3-(5-isopropoxypyridin-2-yl)-6-methoxyisoquinolin-1-yl)oxy)-9-methyl-14a-(((1-methylcyclopropyl)sulfonyl)carbamoyl)-5,16-dioxo-2,3,5,6,7,9,10,11,13a,14,14a,15,16,16a-tetradecahydro-1H-cyclopropa[i]pyrrolo[1,2-e][1,5,8]oxadiazacyclopentadecin-6-yl)carbamate]",EC50,[1],1.01 to 5 nM
same,EC50,[2],1.01 to 5 nM
